Our source for the EC50 values is patent US9133158B2, “Bicyclic dihydroisoquinoline-1-one derivatives” (Hoffmann-La Roche Inc., priority 2011, dated 2015).

Structures are written as SMILES.

By EC50 is commonly meant the concentration needed to bring the measured effect to its halfway point. Read a low EC50 as an effect from little substance.

The target of assay [1] is T1, human CYP11B1 (Homo sapiens, UniProt P15538).
T1 construct: expressed in transfected cells
T1 sequence (P15538 25-503): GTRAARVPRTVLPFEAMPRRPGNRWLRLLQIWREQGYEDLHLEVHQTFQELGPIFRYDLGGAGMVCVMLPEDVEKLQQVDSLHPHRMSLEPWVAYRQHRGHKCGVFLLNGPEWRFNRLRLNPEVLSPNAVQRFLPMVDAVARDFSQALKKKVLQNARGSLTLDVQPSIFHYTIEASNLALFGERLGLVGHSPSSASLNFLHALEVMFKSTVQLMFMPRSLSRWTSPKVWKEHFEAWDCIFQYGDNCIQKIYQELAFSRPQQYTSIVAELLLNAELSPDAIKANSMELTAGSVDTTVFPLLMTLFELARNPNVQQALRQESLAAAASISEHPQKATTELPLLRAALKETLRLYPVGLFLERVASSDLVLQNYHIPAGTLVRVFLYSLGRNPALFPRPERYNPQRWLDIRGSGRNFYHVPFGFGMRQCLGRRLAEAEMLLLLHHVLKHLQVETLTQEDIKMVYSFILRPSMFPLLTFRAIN
The assay is described as follows: G-402 cellular enzyme assay, human CYP11B1 (cortisol release, HTRF). It counts as cell-based. The note with it: G-402 cells, 1 μM Deoxycortisol. The method, boiled down:
(§1)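 Steroid output from supernatants, quantified by HTRF as cortisol for CYP11B1 or aldosterone for CYP11B2, gave EC50 values by least-squares 4-parameter MMF fitting against inhibitor concentration. Stably transfected G-402 cells carrying the human enzyme received 1 μM deoxycortisol or 1 μM deoxycorticosterone respectively, 16 h, DMEM/F12 with 2.5% charcoal-stripped FCS.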
(TR-FRET usually uses a lanthanide donor and a delayed reading to cut background.)

In assay [2] the target is T2, human CYP11B2 (Homo sapiens, UniProt P19099).
T2 construct: expressed in transfected cells
T2 sequence (P19099 25-503): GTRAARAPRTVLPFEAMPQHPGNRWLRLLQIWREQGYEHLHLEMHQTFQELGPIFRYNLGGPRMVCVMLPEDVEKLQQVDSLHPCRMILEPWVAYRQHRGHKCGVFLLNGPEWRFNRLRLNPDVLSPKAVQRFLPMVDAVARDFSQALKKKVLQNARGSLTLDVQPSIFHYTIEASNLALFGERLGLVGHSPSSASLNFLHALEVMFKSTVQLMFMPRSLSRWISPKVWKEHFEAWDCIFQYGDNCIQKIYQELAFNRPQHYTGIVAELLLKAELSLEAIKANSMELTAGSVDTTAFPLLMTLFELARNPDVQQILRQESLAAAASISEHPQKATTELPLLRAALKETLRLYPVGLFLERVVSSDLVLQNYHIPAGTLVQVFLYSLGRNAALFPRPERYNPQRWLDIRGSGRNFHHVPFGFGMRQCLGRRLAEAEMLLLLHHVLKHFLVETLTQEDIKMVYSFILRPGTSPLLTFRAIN
The assay is described as follows: G-402 cellular enzyme assay, human CYP11B2 (aldosterone release, HTRF). It counts as cell-based. The settings on record: G-402 cells, 1 μM Deoxycorticosterone. The method, boiled down: as §1

As for `CC[C@@H]1c2cc(Cl)ccc2C(=O)N1c1cncc2c1CC[C@@H]2NC(C)=O` (single isomer, unassigned) [Example 342, (+)-N—[(S or R)-4-((R or S)-5-Chloro-3-ethyl-1-oxo-1,3-dihydro-isoindol-2-yl)-6,7-dihydro-5H-[2]pyrindin-7-yl]-acetamide], the EC50 came to 94.7 nM in assay [1] and 15.1 nM in assay [2].
For `Cc1cnn(Cc2cncc(N3CCc4cc(Cl)ccc4C3=O)c2)c1` [Example 187, 6-Chloro-2-[5-(4-methyl-pyrazol-1-ylmethyl)-pyridin-3-yl]-3,4-dihydro-2H-isoquinolin-1-one], in that order: 2230 nM and 137 nM.
With `CCC1c2cc(Cl)ccc2C(=O)N1c1cccnc1` (stereo not drawn) [Example 125, 5-Chloro-3-ethyl-2-pyridin-3-yl-2,3-dihydro-isoindol-1-one], the concentration for a half-maximal effect (EC50) in assay [1] was 3340 nM; in assay [2] it was 121 nM.
For `Cc1nncn1Cc1cncc(N2CCc3cc(Cl)ccc3C2=O)c1` [Example 177, 6-Chloro-2-[5-(3-methyl-[1,2,4]triazol-4-ylmethyl)-pyridin-3-yl]-3,4-dihydro-2H-isoquinolin-1-one] the same measures were 6310 nM and 412 nM.
`O=C1c2ccc(Cl)cc2CCN1c1cncc(CN2CCC3(COC3)C2)c1` [Example 170, 6-Chloro-2-[5-(2-oxa-6-aza-spiro[3.4]oct-6-ylmethyl)-pyridin-3-yl]-3,4-dihydro-2H-isoquinolin-1-one]: the concentration for a half-maximal effect (EC50) is 14.6 nM in assay [1] and 3.5 nM in assay [2].
For `O=C1c2ccc(Cl)cc2CCN1c1cncc(CNc2cccc(Cl)c2)c1` [Example 261, 6-Chloro-2-{5-[(3-chloro-phenylamino)-methyl]-pyridin-3-yl}-3,4-dihydro-2H-isoquinolin-1-one] the same measures were 105 nM and 26.7 nM.
For `O=C1c2ccc(Cl)cc2CCN1c1cncc(CN2CCCS2(=O)=O)c1` [Example 82, 6-Chloro-2-[5-(1,1-dioxo-1^λ6-isothiazolidin-2-ylmethyl)-pyridin-3-yl]-3,4-dihydro-2H-isoquinolin-1-one], in that order: 597 nM and 78.9 nM.
In the case of `CCS(=O)(=O)NC1CCCc2c1cncc2N1Cc2cc(Cl)ccc2C1=O` (single isomer, unassigned; (+)) [Example 316, (+)-Ethanesulfonic acid [(R or S)-4-(5-chloro-1-oxo-1,3-dihydro-isoindol-2-yl)-5,6,7,8-tetrahydro-isoquinolin-8-yl]-amide], the half-maximal effective concentration (EC50) worked out at 1830 nM in assay [1] and 40.2 nM in assay [2].
`CC(NS(C)(=O)=O)c1cncc(N2CCc3cc(Cl)ccc3C2=O)c1` (stereo not drawn) [Example 276, N-{1-[5-(6-Chloro-1-oxo-3,4-dihydro-1H-isoquinolin-2-yl)-pyridin-3-yl]-ethyl}-methanesulfonamide]: the concentration giving a half-maximal response (EC50) in assay [1] came to 2030 nM; in assay [2] it was 284 nM.
On to `CC[C@@H]1c2cc(Cl)ccc2C(=O)N1c1cncc2c1CCC[C@H]2NC(C)=O` (single isomer, unassigned) [Example 358, N-[(R or S)-4-((R or S)-5-Chloro-3-ethyl-1-oxo-1,3-dihydro-isoindol-2-yl)-5,6,7,8-tetrahydro-isoquinolin-8-yl]-acetamide], for which the values for the EC50 in assay [1] and in assay [2] were 433 nM and 5 nM, respectively.
Consider `CC1(C)CN(c2cncc(F)c2)C(=O)c2ccc(Cl)cc21` [Example 104, 6-Chloro-2-(5-fluoro-pyridin-3-yl)-4,4-dimethyl-3,4-dihydro-2H-isoquinolin-1-one], for which the EC50 in assay [1] was found to be 59800 nM; in assay [2], 2340 nM.
In the case of `O=C1c2ccc(Cl)cc2CCN1c1cncc(CN2CCCCS2(=O)=O)c1` [Example 81, 6-Chloro-2-[5-(1,1-dioxo-1λ^6-[1,2]thiazinan-2-ylmethyl)-pyridin-3-yl]-3,4-dihydro-2H-isoquinolin-1-one], the EC50 amounted to 2360 nM in assay [1] and 178 nM in assay [2].
Regarding `O=C1c2ccc(Cl)cc2CCN1c1cncc(-c2cnoc2)c1` [Example 243, 6-Chloro-2-(5-isoxazol-4-yl-pyridin-3-yl)-3,4-dihydro-2H-isoquinolin-1-one], the EC50 in assay [1] was 3340 nM; in assay [2], 268 nM.
For `Cn1ncnc1-c1cncc(N2CCc3cc(Cl)ccc3C2=O)c1` [Example 67, 6-Chloro-2-[5-(2-methyl-2H-[1,2,4]triazol-3-yl)-pyridin-3-yl]-3,4-dihydro-2H-isoquinolin-1-one] the same measures were 1200 nM and 102 nM.
Regarding `O=C1c2ccc(Cl)cc2CN1c1cncc(Cn2cncn2)c1` [Example 110, 5-Chloro-2-(5-[1,2,4]triazol-1-ylmethyl-pyridin-3-yl)-2,3-dihydro-isoindol-1-one], the figures for the EC50 in assay [1] and in assay [2] were 1280 nM and 184 nM, respectively.
For `CC(=O)NCc1cncc(N2CCc3cc(Cl)ccc3C2=O)c1` [Example 153, N-[5-(6-Chloro-1-oxo-3,4-dihydro-1H-isoquinolin-2-yl)-pyridin-3-ylmethyl]-acetamide], in that order: 15000 nM and 302 nM.
As to `O=C1c2ccc(Cl)cc2CCN1c1cncc(Cn2ccc3cccc(F)c32)c1` [Example 185, 6-Chloro-2-[5-(7-fluoro-indol-1-ylmethyl)-pyridin-3-yl]-3,4-dihydro-2H-isoquinolin-1-one], the concentration for a half-maximal effect (EC50) worked out at 673 nM in assay [1] and 66 nM in assay [2].
For `Cc1ccc(C(=O)NCc2cncc(N3C(=O)c4ccc(Cl)cc4C3(C)C)c2)cn1` [Example 436, N-[5-(6-Chloro-1,1-dimethyl-3-oxo-1,3-dihydro-isoindol-2-yl)-pyridin-3-ylmethyl]-6-methyl-nicotinamide] the same measures were 158 nM and 5.8 nM.
Turning to `O=C1c2ccc(Cl)cc2CCN1c1cncc(CNc2ccccc2)c1` [Example 257, 6-Chloro-2-(5-phenylaminomethyl-pyridin-3-yl)-3,4-dihydro-2H-isoquinolin-1-one], the concentration for a half-maximal effect (EC50) in assay [1] was 95.4 nM; in assay [2], 11.3 nM.
Turning to `O=C1c2ccc(Cl)cc2CCN1c1cncc(Cn2ccnc2CO)c1` [Example 163, 6-Chloro-2-[5-(2-hydroxymethyl-imidazol-1-ylmethyl)-pyridin-3-yl]-3,4-dihydro-2H-isoquinolin-1-one], the EC50 worked out at 3360 nM in assay [1] and 215 nM in assay [2].
For `CC(C)(O)c1cncc(N2CCc3cc(Cl)ccc3C2=O)c1` [Example 12, 6-Chloro-2-[5-(1-hydroxy-1-methyl-ethyl)-pyridin-3-yl]-3,4-dihydro-2H-isoquinolin-1-one], in that order: 118 nM and 35.7 nM.
For `CC(C)c1nccn1Cc1cncc(N2CCc3cc(Cl)ccc3C2=O)c1` [Example 141, 6-Chloro-2-[5-(2-isopropyl-imidazol-1-ylmethyl)-pyridin-3-yl]-3,4-dihydro-2H-isoquinolin-1-one] the same measures were 1310 nM and 40.5 nM.
`Cn1ncc(Cl)c1-c1cncc(N2CCc3cc(Cl)ccc3C2=O)c1` [Example 421, 6-Chloro-2-[5-(4-chloro-2-methyl-2H-pyrazol-3-yl)-pyridin-3-yl]-3,4-dihydro-2H-isoquinolin-1-one]: the concentration giving a half-maximal response (EC50) was determined as 32.4 nM in assay [1] and 0.7 nM in assay [2].
`CC[C@@H]1c2cc(Cl)ccc2C(=O)N1c1cncc2c1CCC[C@H]2NS(C)(=O)=O` (single isomer, unassigned) [Example 347, N-[(R or S)-4-((R or S)-5-Chloro-3-ethyl-1-oxo-1,3-dihydro-isoindol-2-yl)-5,6,7,8-tetrahydro-isoquinolin-8-yl]-methanesulfonamide]: the EC50 in assay [1] came to 22900 nM; in assay [2] it was 162 nM.
Regarding `CC1c2cc(Cl)ccc2C(=O)N1c1cccnc1` (stereo not drawn) [Example 118, 5-Chloro-3-methyl-2-pyridin-3-yl-2,3-dihydro-isoindol-1-one], the concentration for a half-maximal effect (EC50) in assay [1] turned out to be 1250 nM; in assay [2] it was 123 nM.
Consider `COCc1ccncc1N1CCc2cc(Cl)ccc2C1=O` [Example 69, 6-Chloro-2-(4-methoxymethyl-pyridin-3-yl)-3,4-dihydro-2H-isoquinolin-1-one], for which the EC50 in assay [1] is 7540 nM; in assay [2], 154 nM.
Turning to `COC(=O)[C@@H]1CCCN1Cc1cncc(N2CCc3cc(Cl)ccc3C2=O)c1` [Example 84, (S)-1-[5-(6-Chloro-1-oxo-3,4-dihydro-1H-isoquinolin-2-yl)-pyridin-3-ylmethyl]-pyrrolidine-2-carboxylic acid methyl ester], the results for the EC50 in assay [1] and in assay [2] were 4830 nM and 225 nM, respectively.
